Measured values reported in the NIST ThermoML archive (doi:10.1021/je300632p).
± gives the expanded uncertainty stated by the source.

Test: xn = mol fraction of the nth substance listed
Settings: 101 kPa, Liquid; for viscosity: Falling or rolling sphere viscometry; for mass density: Vibrating tube method

CCCCO [butan-1-ol] + CCO
Settings | mass density [kg/m3] | viscosity [mPa·s]
293.15 K, x2 = 0 | 809.02 ± 0.12 | 3.066 ± 0.065
293.15 K, x2 = 0.1 | 807.8 ± 0.12 | 2.693 ± 0.057
293.15 K, x2 = 0.2 | 806.38 ± 0.12 | 2.494 ± 0.053
293.15 K, x2 = 0.3 | 804.85 ± 0.12 | 2.242 ± 0.048
293.15 K, x2 = 0.4 | 803.63 ± 0.12 | 2.048 ± 0.044
293.15 K, x2 = 0.501 | 801.61 ± 0.12 | 1.897 ± 0.04
293.15 K, x2 = 0.602 | 799.54 ± 0.12 | 1.725 ± 0.037
293.15 K, x2 = 0.701 | 797.38 ± 0.12 | 1.574 ± 0.033
293.15 K, x2 = 0.801 | 795.11 ± 0.12 | 1.445 ± 0.031
293.15 K, x2 = 0.9 | 792.58 ± 0.12 | 1.301 ± 0.028
298.15 K, x2 = 0 | 805.24 ± 0.12 | 2.534 ± 0.054
298.15 K, x2 = 0.1 | 803.98 ± 0.12 | 2.376 ± 0.051
298.15 K, x2 = 0.2 | 802.53 ± 0.12 | 2.214 ± 0.047
298.15 K, x2 = 0.3 | 800.97 ± 0.12 | 1.993 ± 0.042
298.15 K, x2 = 0.4 | 799.71 ± 0.12 | 1.826 ± 0.039
298.15 K, x2 = 0.501 | 797.65 ± 0.12 | 1.705 ± 0.036
298.15 K, x2 = 0.602 | 795.54 ± 0.12 | 1.55 ± 0.033
298.15 K, x2 = 0.701 | 793.33 ± 0.12 | 1.414 ± 0.03
298.15 K, x2 = 0.801 | 790.98 ± 0.12 | 1.302 ± 0.028
298.15 K, x2 = 0.9 | 788.39 ± 0.12 | 1.18 ± 0.025
303.15 K, x2 = 0 | 801.42 ± 0.12 | 2.234 ± 0.047
303.15 K, x2 = 0.1 | 800.13 ± 0.12 | 2.103 ± 0.045
303.15 K, x2 = 0.2 | 798.65 ± 0.12 | 1.967 ± 0.042
303.15 K, x2 = 0.3 | 797.06 ± 0.12 | 1.777 ± 0.038
303.15 K, x2 = 0.4 | 795.75 ± 0.12 | 1.633 ± 0.035
303.15 K, x2 = 0.501 | 793.66 ± 0.12 | 1.533 ± 0.033
303.15 K, x2 = 0.602 | 791.5 ± 0.12 | 1.397 ± 0.03
303.15 K, x2 = 0.701 | 789.23 ± 0.12 | 1.279 ± 0.027
303.15 K, x2 = 0.801 | 786.82 ± 0.12 | 1.184 ± 0.025
303.15 K, x2 = 0.9 | 784.17 ± 0.13 | 1.072 ± 0.023
308.15 K, x2 = 0 | 797.57 ± 0.12 | 1.978 ± 0.042
308.15 K, x2 = 0.1 | 796.25 ± 0.12 | 1.868 ± 0.04
308.15 K, x2 = 0.2 | 794.74 ± 0.12 | 1.754 ± 0.037
308.15 K, x2 = 0.3 | 793.12 ± 0.12 | 1.591 ± 0.034
308.15 K, x2 = 0.4 | 791.76 ± 0.12 | 1.465 ± 0.031
308.15 K, x2 = 0.501 | 789.63 ± 0.12 | 1.381 ± 0.029
308.15 K, x2 = 0.602 | 787.42 ± 0.12 | 1.262 ± 0.027
308.15 K, x2 = 0.701 | 785.1 ± 0.13 | 1.159 ± 0.025
308.15 K, x2 = 0.801 | 782.64 ± 0.13 | 1.076 ± 0.023
308.15 K, x2 = 0.9 | 779.92 ± 0.13 | 0.977 ± 0.021
313.15 K, x2 = 0 | 793.68 ± 0.12 | 1.756 ± 0.037
313.15 K, x2 = 0.1 | 792.33 ± 0.12 | 1.664 ± 0.035
313.15 K, x2 = 0.2 | 790.79 ± 0.12 | 1.569 ± 0.033
313.15 K, x2 = 0.3 | 789.13 ± 0.12 | 1.427 ± 0.03
313.15 K, x2 = 0.4 | 787.74 ± 0.12 | 1.318 ± 0.028
313.15 K, x2 = 0.501 | 785.57 ± 0.12 | 1.246 ± 0.026
313.15 K, x2 = 0.602 | 783.31 ± 0.13 | 1.142 ± 0.024
313.15 K, x2 = 0.701 | 780.94 ± 0.13 | 1.052 ± 0.022
313.15 K, x2 = 0.801 | 778.41 ± 0.13 | 0.98 ± 0.021
313.15 K, x2 = 0.9 | 775.63 ± 0.13 | 0.892 ± 0.019
318.15 K, x2 = 0 | 789.75 ± 0.12 | 1.564 ± 0.033
318.15 K, x2 = 0.1 | 788.37 ± 0.12 | 1.487 ± 0.032
318.15 K, x2 = 0.2 | 786.8 ± 0.12 | 1.407 ± 0.03
318.15 K, x2 = 0.3 | 785.11 ± 0.12 | 1.283 ± 0.027
318.15 K, x2 = 0.4 | 783.67 ± 0.12 | 1.189 ± 0.025
318.15 K, x2 = 0.501 | 781.46 ± 0.13 | 1.127 ± 0.024
318.15 K, x2 = 0.602 | 779.15 ± 0.13 | 1.037 ± 0.022
318.15 K, x2 = 0.701 | 776.73 ± 0.13 | 0.957 ± 0.02
318.15 K, x2 = 0.801 | 774.14 ± 0.13 | 0.895 ± 0.019
318.15 K, x2 = 0.9 | 771.28 ± 0.13 | 0.815 ± 0.017
323.15 K, x2 = 0 | 785.78 ± 0.12 | 1.397 ± 0.03
323.15 K, x2 = 0.1 | 784.36 ± 0.12 | 1.333 ± 0.028
323.15 K, x2 = 0.2 | 782.76 ± 0.12 | 1.265 ± 0.027
323.15 K, x2 = 0.3 | 781.03 ± 0.13 | 1.158 ± 0.025
323.15 K, x2 = 0.4 | 779.54 ± 0.13 | 1.074 ± 0.023
323.15 K, x2 = 0.501 | 777.29 ± 0.13 | 1.024 ± 0.022
323.15 K, x2 = 0.602 | 774.95 ± 0.13 | 0.943 ± 0.02
323.15 K, x2 = 0.701 | 772.47 ± 0.13 | 0.874 ± 0.019
323.15 K, x2 = 0.801 | 769.82 ± 0.13 | 0.817 ± 0.017
323.15 K, x2 = 0.9 | 766.89 ± 0.13 | 0.748 ± 0.016
328.15 K, x2 = 0 | 781.75 ± 0.12 | 1.252 ± 0.027
328.15 K, x2 = 0.1 | 780.31 ± 0.12 | 1.199 ± 0.025
328.15 K, x2 = 0.2 | 778.67 ± 0.13 | 1.141 ± 0.024
328.15 K, x2 = 0.3 | 776.91 ± 0.13 | 1.047 ± 0.022
328.15 K, x2 = 0.4 | 775.38 ± 0.13 | 0.974 ± 0.021
328.15 K, x2 = 0.501 | 773.09 ± 0.13 | 0.93 ± 0.02
328.15 K, x2 = 0.602 | 770.69 ± 0.13 | 0.86 ± 0.018
328.15 K, x2 = 0.701 | 768.15 ± 0.13 | 0.798 ± 0.017
328.15 K, x2 = 0.801 | 765.44 ± 0.13 | 0.749 ± 0.016
328.15 K, x2 = 0.9 | 762.45 ± 0.13 | 0.686 ± 0.015
